# Data reported in US9782371B2, “Composition for promoting remyelination in nerve cells comprising 2,5-dihydroxybenzenesulfonic acid and use thereof” (Samsung Electronics Co., Ltd., priority 2015, dated 2017).
# Experiments:
# PMP22 = PMP22 protein expression by Western blotting in rat Schwann cells overexpressing human PMP22; assay type: cell-based
# Method: Rat Schwann cells were inoculated at a concentration of about 10^5 cells/mL into each well of a 12-well plate including 2 mL of a Dulbecco's Modified Eagle's Medium (DMEM) containing 10% fetal bovine serum (FBS), 100 units/mL of penicillin, and 100 units/mL of streptomycin, and incubated in a 5%-CO2 incubator at about 37° C. to a cell density of about 60% to about 65%. […] Rat Schwann cells are often used in in vitro models for neuronal function and differentiation. The rat Schwann cells used herein were modified to consistently overexpress the human PMP22 gene by lentivital mediated integration of PMP22 into a chromosome and selective use of puromycin-resistant markers, thereby constructing a new rat Schwann PMP22 cell model. The rat Schwann cells (ATCC number; CRL-2768) were purchased from the American Type Culture Collection (ATCC).
# After 2 mL of the culture medium was removed, the resulting rat Schwann cells were washed with phosphate buffered saline (PBS), followed by adding a lysis solution containing a 0.5% triton X-100 in PBS thereto, collecting the cells using a scraper, leaving the cells on ice for about 30 minutes, and then disrupting the cells. […]
# [1] = tested on: myelin surrounding axons of the posterior lateral line nerves (PLLs); test: Remyelination of peripheral nervous system (PLL myelin) in MTZ-demyelinated transformed zebrafish, GFP-fluorescence confocal microscopy; assay type: in vivo, Zebrafish (Danio rerio)
# Method: Transformed Zebrafish (Danio rerio) in which genes respectively encoding an Mbp:EGFP fusion protein and a Claudink:EGFP fusion protein that are specifically expressed in myelin and emit fluorescence by using promoters of a myelin basic protein (MBP) gene and a Claudink gene were prepared, by transforming Zebrafish cells with genes respectively encoding an Mbp:EGFP fusion protein and a Claudink:EGFP fusion protein. Specifically, the NfsB virulence gene encodes a nitroreductase (NTR) enzyme. […] However, when metronidazole (MTZ) is added to cells, the cells convert MTZ into a cytotoxic material by using NTR, which induces apoptosis. Genetically engineered zebrafish, i.e., transformed zebrafish that express the NfsB virulence gene specifically in differentiated oligodendrocytes and Schwann cells were prepared by using promoters of mbp and claudink genes that specifically operate in differentiated myelin to express myelin-specific genes bound to myelin, and using the Gal4-UAS transactivator system. Next, it was confirmed that the NfsB virulence gene was myelin-specifically expressed in the transformed zebrafish.
# As a result, an animal model of demyelination that is induced in the presence of MTZ was established. Hereinafter, this animal model is also referred to as zebrafish (Mbp (or claudink):gal4::UAS:nfsB (NTR, toxin)::UAS:gfp). After removing the added MTZ substrate from the culture medium, the transformed zebrafish were then cultured in a culture medium free of MTZ for 1 day, followed by a recovery period. This study, described in greater detail below, confirmed that natural remyelination occurred in the demyelinated central nervous system and peripheral nervous system and that ES drug has an effect of promoting remyelination. […]
# [2] = tested on: Mauthner axons and myelin in the central nervous system; test: Remyelination of central nervous system (Mauthner axons) in MTZ-demyelinated transformed zebrafish, g-ratio; assay type: in vivo, Zebrafish (Danio rerio); conditions: zebrafish ClaudinK line
# Method: Transformed Zebrafish (Danio rerio) in which genes respectively encoding an Mbp:EGFP fusion protein and a Claudink:EGFP fusion protein that are specifically expressed in myelin and emit fluorescence by using promoters of a myelin basic protein (MBP) gene and a Claudink gene were prepared, by transforming Zebrafish cells with genes respectively encoding an Mbp:EGFP fusion protein and a Claudink:EGFP fusion protein. Specifically, the NfsB virulence gene encodes a nitroreductase (NTR) enzyme. […] However, when metronidazole (MTZ) is added to cells, the cells convert MTZ into a cytotoxic material by using NTR, which induces apoptosis. […]
# FIG. 6 illustrates the results of GFP-originated fluorescence microscopy and red fluorescence microscopy with immunostaining by acetylated-tubulin that is expressed specific to axons, by using a confocal laser microscope on sections of Mauthner axons and myelin in the central nervous system of the zebrafish (ClaudinK:gal4::UAS:nfsB (NTR, toxin)::UAS:gfp) incubated under various conditions. […] The axon and fiber diameters were obtained by calculating the diameters from the intensities of GFP-originated fluorescence and red axonal fluorescence with the Image J program. […]
smiles,measurement,setting,value
"CCNCC.O=S(=O)(O)c1cc(O)ccc1O [ethamsylate, diethyl ammonium 2,5-dihydroxybenzene sulfonic acid]",expression level of PMP22 protein,"PMP22; 10 μM ethamsylate, incubation for 0.5, 1, 12, 24 and 48 hours, vs 0 hour control, FIG. 1 panel B",decreased compared to the control group
same,amount of PMP22 protein expressed,"PMP22; 0.1, 1, 10, 100 μM ethamsylate in DMSO, about 24 hours, vs DMSO control, FIG. 1 panel A, n=4",decrease in the amount of PMP22 protein expressed
same,ratio of myelinated axons to total axons,"[1]; zebrafish Claudink line, 10 μM ES vs MTZ treated sample, FIGS. 4 and 5",significantly higher
same,remyelination of PLL myelin (GFP and acetylated-tubulin fluorescence),"[1]; zebrafish Claudink:gal4::UAS:nfsB::UAS:gfp, 10 μM ES after MTZ, FIG. 4",promote remyelination
same,myelin in the peripheral nervous system (GFP-originated green fluorescence),"[1]; zebrafish Mbp:gal4::UAS:nfsB::UAS:gfp, MTZ 4.5-6 dpf, washed, 10 μM ES 6-7 dpf (about 1 day), FIG. 3 panel D",completely remyelinated
same,g-ratio (diameter ratio of axon to nerve fiber),"[2]; Mauthner axons, 10 μM ethamsylate vs MTZ treatment group, FIG. 8",remarkably reduced g-ratio
same,regeneration or remyelination of demyelinated nerve cells in the central nervous system,"[2]; incubated in presence of ethamsylate after MTZ, FIGS. 6 and 8",remyelinated with a significantly higher efficiency
